# Results published in US12214036B2, “Combination therapy comprising AXL/MER and PD-1/PD-L1 inhibitors” (Incyte Corporation, priority 2020, dated 2025).
# Columns and labels:
# [1] = tested on: BAF3 cells expressing AXL; test: BAF3-AXL cell proliferation assay (CellTiter-Glo); assay type: cell-based; details: Mus musculus, 48 hours, 2% FBS
# Source text: (§1) To evaluate the cellular potency and selectivity within the TAM receptor family, mouse BAF3 cell lines with stable expression of AXL, MER, or TYRO3 were generated.
# (§2) The cytoplasmic domain of AXL, MER, or TYRO3 fused with dimerization sequence and HA tag was cloned into a pMSCV (murine stem cell virus) vector with a puromycin-resistance marker to generate three constructs individually by electroporation into BAF3 cells. Single clones that were IL-3-independent and puromycin-resistant were selected and characterized. To evaluate effects on BAF3 cell proliferation, 1000 cells/well of BAF3, BAF3-AXL, BAF3 MER, or BAF3-TYRO3 cells were treated in the presence or absence of Compound 1 at various concentrations (10 concentration points with a three-fold dilution factor from the highest concentration of 10 μM) diluted in RPMI-1640 with 2% FBS for 48 hours in a 384-well plate. Cell viability was measured by ATP assay (CellTiter-Glo Assay, Promega, Madison, Wis.) according to the manufacturer's procedure. The data were converted to percent inhibition relative to DMSO control, and IC50 curves were fitted using GraphPad Prism software.
# CTG-1339 tumors = test: Sarcoma PDX model CTG-1339 (osteosarcoma); assay type: in vivo, athymic nude mice
# Description: Macrophages were allowed to thaw on ice before being lysed with 250 μL/well of 1× Lysis Buffer (Cell Signaling Technology; #9803) and Halt protease and phosphatase inhibitors (ThermoFisher Scientific) for 1 hour at 4° C. The lysed cells were scraped and transferred to an Eppendorf vial on ice. The lysates were centrifuged at 12,700 rpm for 15 minutes at 4° C. PDX tumors were weighed and homogenized with lysis buffer supplemented with protease and phosphatase inhibitor cocktails (Roche, Basel, Switzerland; #11836170001). Tumors were lysed on ice for 30 minutes, followed by centrifugation at 13,000 rpm for 10 minutes. Protein lysates were quantified using BCA Protein Assay Kit (Pierce, ThermoFisher Scientific; #23225). Lysates were transferred to a new tube together with 6× Laemmli SDS sample buffer (Alfa Aesar, Haverhill, Mass.) and the samples were heated for 6 minutes at 95° C. Approximately 50 μg of protein sample was loaded per well using Novex™ 8-16% Tris-Glycine Mini Gels or 4-12% Tris-Glycine Novex WedgeGels (Invitrogen, Carlsbad, Calif.). The proteins were transferred to a nitrocellulose membrane using an iBlot (ThermoFisher Scientific) dry blotting system. The membranes were blocked with 0.5% nonfat dry milk in wash buffer (100 mM NaCl, 10 mM Tris-HCl, pH 8.0, 0.1% Tween 20) for 1 hour at room temperature. The primary antibody used for pMER was from PhosphoSolutions (Aurora, Colo.; #p186-749). The remaining antibodies were obtained from Cell Signaling Technology: MER (#4319), pAXL (#5724), AXL, (#4566), GAS6 (#67202), pAKT (#4060), AKT (#9272), and β-Actin (#4970). Primary antibodies were added at 1:500 and 1:1000, respectively, in 0.5% milk/wash buffer and rocked overnight at 4° C. The membranes were washed three times in wash buffer before incubation with the secondary antibody (anti-rabbit IgG1-HRP; Cell Signaling Technology) at 1:2500 in 0.5% milk/wash buffer for 2 hours at room temperature. The membranes were washed again before the bands were detected with SuperSignal West Dura Extended Duration Chemiluminescent substrate (ThermoFisher Scientific) and were visualized using the Fluorochem M Digital Imager (Protein Simple, San Jose, Calif.).
# MBT-2 cells were obtained from the Japanese Collection of Research Bioresources Cell Bank and were maintained in DMEM supplemented with 10% FBS. MC38 cells were obtained from the NCI. 4T1 cells were obtained from ATCC and maintained in RPMI media supplemented with 10% FBS. For MBT-2 experiments, 5×10^5 MBT-2 cells were inoculated subcutaneously into the right hind flank of 6- to 8-week-old C3H mice or athymic nude mice (Charles River Laboratories, Wilmington, Mass.). […] Mice were monitored for tumor growth and overt tolerability over the course of the experiment. […]
# [2] = tested on: BAF3 cells expressing MER; test: BAF3-MER cell proliferation assay (CellTiter-Glo); assay type: cell-based; details: Mus musculus, 48 hours, 2% FBS
# Source text: as §1, §2
structure (smiles),measurement,setting,value
"CC(C)C(=O)N1CCC(c2cc(-c3ccc(NC(=O)c4cn(C(C)C)c(=O)n(-c5ccccn5)c4=O)cc3)c3c(N)ncnn23)CC1 [Compound 1, N-(4-(4-Amino-7-(1-isobutyrylpiperidin-4-yl)pyrrolo[1,2-f][1,2,4]triazin-5-yl)phenyl)-1-isopropyl-2,4-dioxo-3-(pyridin-2-yl)-1,2,3,4-tetrahydropyrimidine-5-carboxamide]",GI50,[1],16 ± 11 nM
same,antitumor response,"CTG-1339 tumors; CTG-1339, 10, 30, 100 mg/kg BID oral, FIG. 9C",resistant
same,pAKT in tumors (Western blot),"CTG-1339 tumors; CTG-1339 tumors, FIG. 9D",only inhibited in CTG-2041
same,pAXL and pMER in tumors (Western blot),"CTG-1339 tumors; CTG-1339 tumors, FIG. 9D",inhibited
same,total MER levels in tumors (Western blot),"CTG-1339 tumors; CTG-1339 tumors, FIG. 9D",increased
same,GI50,[2],14 ± 4.9 nM
